Experimental findings from patent US11377441B2, “Covalent inhibitors of KRAS” (Araxes Pharma LLC, priority 2017, dated 2022) are described below.

The target of the test is T1, KRAS G12C 1-169, his-tagged protein, GDP-loaded (Homo sapiens, UniProt P01116, G12C).
T1 construct: KRAS G12C 1-169, his-tagged protein, GDP-loaded
The test can be described thus: Biochemical assay: covalent modification of KRAS G12C measured by mass spectrometry (RapidFire/TOF or Q-Exactive). Format: binding. The note with it: covalent binding to (modification of) KRAS G12C after a ten minute incubation period. In a few lines:
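Intact-mass readout (TOF or Q-Exactive, charge-envelope deconvolution) gives percent covalent adduct from modified and unmodified species. Compound at 10, 30 or 100 μM was incubated at room temperature for 10 min to 24 h with 2 μM or 0.5 μM GDP-bound KRAS G12C 1-169 in Hepes/NaCl/MgCl2 buffer, then acid-quenched.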

Take `C=CC(=O)N1CCN(c2nc(N3CC(N(C)C)C3)nc3c(F)c(-c4c(C)ccc5[nH]nc(N)c45)c(Cl)cc23)C[C@H]1C` [Compound 165, 1-((2R)-4-(7-(3-amino-5-methyl-1H-indazol-4-yl)-6-chloro-2-(3-(dimethylamino)azetidin-1-yl)-8-fluoroquinazolin-4-yl)-2-methylpiperazin-1-yl)prop-2-en-1-one]: the Binding % result is given as “+++ (+++ indicates binding activity greater than 80%)”.

As to `C=CC(=O)N1C[C@H](C)N(c2nc(N3CC(N(C)C)C3)nc3c(F)c(-c4c(C)ccc5cnn(C)c45)c(C(F)(F)F)cc23)C[C@H]1C` [Compound 171, 1-((2R,5S)-4-(7-(1,6-dimethyl-1H-indazol-7-yl)-2-(3-(dimethylamino)azetidin-1-yl)-8-fluoro-6-(trifluoromethyl)quina-zolin-4-yl)-2,5-dimethylpiperazin-1-yl)prop-2-en-1-one], the Binding % result was “+++ (+++ indicates binding activity greater than 80%)”. Take `C=CC(=O)N1C[C@H](C)N(c2nc(OC[C@H]3CCCN3C)nc3c(F)c(-c4c(C)ccc5[nH]nc(C6CC6)c45)c(Cl)cc23)C[C@H]1C` [Compound 172, 1-((2R,5S)-4-(6-chloro-7-(3-cyclopropyl-5-methyl-1H-indazol-4-yl)-8-fluoro-2-(((R)-1-methylpyrroldiin-2-yl)methoxy)quinazolin-4-yl)-2,5-dimethylpiperazin-1-yl)prop-2-en-1-one]: the Binding % result is on record as “+++ (+++ indicates binding activity greater than 80%)”.

Regarding `C=CC(=O)N1C[C@H](C)N(c2nc(N3CC(N(C)C)C3)nc3c(F)c(-c4c(C)ccc5cnn(C6CC6)c45)c(C(F)(F)F)cc23)C[C@H]1C` [Compound 173, 1-((2R,5S)-4-(7-(1-cyclopropyl-6-methyl-1H-indazol-7-yl)-2-(3-(dimethylamino)azetidin-1-yl)-8-fluoro-6-(trifluoromethyl)quina-zolin-4-yl)-2,5-dimethylpiperazin-1-yl)prop-2-en-1-one], the Binding % result was “+++ (+++ indicates binding activity greater than 80%)”. For `C=CC(=O)N1C[C@H](C)N(c2nc(OC[C@@H]3CCN(C)C3)nc3c(F)c(-c4c(C)ccc5cnn(C)c45)c(Cl)cc23)C[C@H]1C` [Compound 174, 1-((2R,5S)-4-(6-chloro-7-(1,6-dimethyl-1H-indazol-7-yl)-8-fluoro-2-(((R)-1-methylpyrrolidin-3-yl)methoxy)quinazolin-4-yl)-2,5-dimethylpiperazin-1-yl)prop-2-en-1-one], the Binding % result is “+++ (+++ indicates binding activity greater than 80%)”. With `C=CC(=O)N1C[C@H](C)N(c2nc(OC[C@@H]3CCN(C)C3)nc3c(F)c(-c4c(C)ccc5[nH]nc(C)c45)c(Cl)cc23)C[C@H]1C` [Compound 175, 1-((2R,5S)-4-(6-chloro-7-(3,5-dimethyl-1H-indazol-4-yl)-8-fluoro-2-(((R)-1-methylpyrrolidin-3-yl)methoxy)quinazolin-4-yl)-2,5-dimethylpiperazin-1-yl)prop-2-en-1-one], the Binding % result is given as “++ (++ indicates binding activity from 50 to 80%)”. `C=CC(=O)N1C[C@H](C)N(c2nc(OC[C@@H]3CN(C)CCO3)nc3c(F)c(-c4c(C)ccc5cnn(C)c45)c(Cl)cc23)C[C@H]1C` [Compound 176, 1-((2R,5S)-4-(6-chloro-7-(1,6-dimethyl-1H-indazol-7-yl)-8-fluoro-2-(((S)-4-methylmorpholin-2-yl)methoxy)quinazolin-4-yl)-2,5-dimethylpiperazin-1-yl)prop-2-en-1-one]: the Binding % entry is on record as “+++ (+++ indicates binding activity greater than 80%)”. For the compound `C=CC(=O)N1C[C@H](C)N(c2nc(OC[C@@H]3CCN(C)C3)nc3c(F)c(-c4c(C)ccc5[nH]nc(C6CC6)c45)c(Cl)cc23)C[C@H]1C` [Compound 177, 1-((2R,5S)-4-(6-chloro-7-(3-cyclopropyl-5-methyl-1H-indazol-4-yl)-8-fluoro-2-(((R)-1-methylpyrrolidin-3-yl)methoxy)quinazolin-4-yl)-2,5-dimethylpiperazin-1-yl)prop-2-en-1-one], the Binding % result is “+++ (+++ indicates binding activity greater than 80%)”.

With `C=CC(=O)N1C[C@H](C)N(c2nc(OC[C@H]3COCCN3C)nc3c(F)c(-c4c(C)ccc5cnn(C)c45)c(Cl)cc23)C[C@H]1C` [Compound 178, 1-((2R,5S)-4-(6-chloro-7-(1,6-dimethyl-1H-indazol-7-yl)-8-fluoro-2-(((R)-4-methylmorpholin-3-yl)methoxy)quinazolin-4-yl)-2,5-dimethylpiperazin-1-yl)prop-2-en-1-one], the Binding % result is listed as “++ (++ indicates binding activity from 50 to 80%)”.

In the case of `C=CC(=O)N1C[C@H](C)N(c2nc(OC[C@H]3CCCN3C)nc3c(F)c(-c4c(C)ccc5[nH]nc(C)c45)c(Cl)cc23)C[C@H]1C` [Compound 179, 1-((2R,5S)-4-(6-chloro-7-(3,5-dimethyl-1H-indazol-4-yl)-8-fluoro-2-(((R)-1-methylpyrrolidin-2-yl)methoxy)quinazolin-4-yl)-2,5-dimethyllpiperazin-1-yl)prop-2-en-1-one], the Binding % result is recorded as “+++ (+++ indicates binding activity greater than 80%)”. Consider `C=CC(=O)N1C[C@H](C)N(c2nc(OC[C@H]3COCCN3C)nc3c(F)c(-c4c(C)ccc5[nH]nc(C6CC6)c45)c(Cl)cc23)C[C@H]1C` [Compound 180, 1-((2R,5S)-4-(6-chloro-7-(3-cyclopropyl-5-methyl-1H-indazol-4-yl)-8-fluoro-2-(((R)-4-methymorpholin-3-yl)methoxy)quinazolin-4-yl)-2,5-dimethylpiperazin-1-yl)prop-2-en-1-one], for which the Binding % entry is reported as “++ (++ indicates binding activity from 50 to 80%)”.

On to `C=CC(=O)N1C[C@H](C)N(c2nc(OC[C@H]3COCCN3C)nc3c(F)c(-c4c(C)ccc5[nH]nc(C)c45)c(Cl)cc23)C[C@H]1C` [Compound 181, 1-((2R,5S)-4-(6-chloro-7-(3,5-dimethyl-1H-indazol-4-yl)-8-fluoro-2-(((R)-4-methylmorpholin-3-yl)methoxy)quinazolin-4-yl)-2,5-dimethylpiperazin-1-yl)prop-2-en-1-one], for which the Binding % result is “+ (+ indicates binding activity greater than 0% and up to 50%)”.

Consider `C=CC(=O)N1C[C@H](C)N(c2nc(OC[C@@H]3COCCN3C)nc3c(F)c(-c4c(C)ccc5cnn(C)c45)c(Cl)cc23)C[C@H]1C` [Compound 182, 1-((2R,5S)-4-(6-chloro-7-(1,6-dimethyl-1H-indazol-7-yl)-8-fluoro-2-(((S)-4-methylmorpholin-3-yl)methoxy)quinazolin-4-yl)-2,5-dimethylpiperazin-1-yl)prop-2-en-1-one], for which the Binding % entry is “++ (++ indicates binding activity from 50 to 80%)”. As to `C=CC(=O)N1C[C@H](C)N(c2nc(OC[C@@H]3COCCN3C)nc3c(F)c(-c4c(C)ccc5[nH]nc(C6CC6)c45)c(Cl)cc23)C[C@H]1C` [Compound 183, 1-((2R,5S)-4-(6-chloro-7-(3-cyclopropyl-5-methyl-1H-indazol-4-yl)-8-fluoro-2-(((S)-4-methylmorpholin-3-yl)methoxy)quinazolin-4-yl)-2,5-dimethylpiperazin-1-yl)prop-2-en-1-one], the Binding % result is recorded as “+++ (+++ indicates binding activity greater than 80%)”. For the compound `C=CC(=O)N1C[C@H](C)N(c2nc(OC[C@@H]3COCCN3C)nc3c(F)c(-c4c(C)ccc5[nH]nc(C)c45)c(Cl)cc23)C[C@H]1C` [Compound 184, 1-((2R,5S)-4-(6-chloro-7-(3,5-dimethyl-1H-indazol-4-yl)-8-fluoro-2-(((S)-4-methylmorpholin-3-yl)methoxy)quinazolin-4-yl)-2,5-dimethylpiperazin-1-yl)prop-2-en-1-one], the Binding % entry was “+++ (+++ indicates binding activity greater than 80%)”. With `C=CC(=O)N1C[C@H](C)N(c2nc(OC[C@@H]3CCCN3C)nc3c(F)c(-c4c(C)ccc5[nH]nc(C)c45)c(Cl)cc23)C[C@H]1C` [Compound 185, 1-((2R,5S)-4-(6-chloro-7-(3,5-dimethyl-1H-indazol-4-yl)-8-fluoro-2-(((S)-1-methylpyrrolidin-2-yl)methoxy)quinazolin-4-yl)-2,5-dimethylpiperazin-1-yl)prop-2-en-1-one], the Binding % result was “+++ (+++ indicates binding activity greater than 80%)”.

`C=CC(=O)N1C[C@H](C)N(c2nc(OC[C@H]3CN(C)CCO3)nc3c(F)c(-c4c(C)ccc5cnn(C)c45)c(Cl)cc23)C[C@H]1C` [Compound 186, 1-((2R,5S)-4-(6-chloro-7-(1,6-dimethyl-1H-indazol-7-yl)-8-fluoro-2-(((R)-4-methylmorpholin-2-yl)methoxy)quinazolin-4-yl)-2,5-dimethylpiperazin-1-yl)prop-2-en-1-one]: the Binding % result is given as “+++ (+++ indicates binding activity greater than 80%)”. As for `C=CC(=O)N1C[C@H](C)N(c2nc(OC[C@@H]3CN(C)CCO3)nc3c(F)c(-c4c(C)ccc5[nH]nc(C6CC6)c45)c(Cl)cc23)C[C@H]1C` [Compound 187, 1-((2R,5S)-4-(6-chloro-7-(3-cyclopropyl-5-methyl-1H-indazol-4-yl)-8-fluoro-2-(((S)-4-methylmorpholin-2-yl)methoxy)quinazolin-4-yl)-2,5-dimethylpiperazin-1-yl)prop-2-en-1-one], the Binding % entry is on record as “+++ (+++ indicates binding activity greater than 80%)”.

As for `C=CC(=O)N1C[C@H](C)N(c2nc(OC[C@@H]3CN(C)CCO3)nc3c(F)c(-c4c(C)ccc5[nH]nc(C)c45)c(Cl)cc23)C[C@H]1C` [Compound 188, 1-((2R,5S)-4-(6-chloro-7-(3,5-dimethyl-1H-indazol-4-yl)-8-fluoro-2-(((S)-4-methylmorpholin-2-yl)methoxy)quinazolin-4-yl)-2,5-dimethylpiperazin-1-yl)prop-2-en-1-one], the Binding % entry is on record as “+++ (+++ indicates binding activity greater than 80%)”.
